From patent US9890138B2, “Diaminopyrimidine derivatives and processes for the preparation thereof” (YUHAN CORPORATION, priority 2011, dated 2018)
Counter-ions that a name gives are not always drawn.

Molecular target: T1, human 5-HT4(a) (Homo sapiens, UniProt Q13639)
T1 construct: host or cells: GeneBlAzer HTR4-CRE-bla CHO-K1 cells
Experiment: Evaluation of agonistic activity in CHO-K1 cells expressing human 5-HT4(a) (GeneBlAzer HTR4-CRE-bla CHO-K1, beta-lactamase reporter)
Format: cell-based
Conditions: CHO-K1 cells stably expressing human 5-HT4(a)
Procedure: Test Example 1: Evaluation of Agonistic Activity in CHO-K1 Cells Expressing Human 5-HT4(a)
As CHO-K1 cells stably expressing human 5-HT4(a), we used the GeneBlAzer HTR4-CRE-bla CHO-K1 cells (Invitrogen Corp.). The cells were cultured, under the condition of 37[…] and 5% CO2, in a DMEM supplemented with 10% fetal bovine serum (FBS), 25 mM HEPES (pH7.4), 600 μg/ml hygromycin B, 0.1 mM non-essential amino acids, 100 unit/ml penicillin and 100 μg/ml streptomycin. Subcultures were performed three times per one week, each being at less than 80% confluence. At the previous day before treating test compounds, the cells were collected using 0.5% trypsin/EDTA and then diluted with a DMEM supplemented with 1% FBS, 25 mM HEPES, and 0.1 mM non-essential amino acids into 3.125×10^5 cells/ml. 32 μl of the diluted cells were added into 384-well plate (10^4 cells per well) and then incubated overnight. After the overnight culture, 8 μl of the medium having 1% of DMSO was added into the cell-free control well and the non-stimulating control well, respectively. 8 μl of the respective test compound dilutions (which had been prepared by diluting by 100-times with the medium as mentioned in the above) having 1% of DMSO were added to the respective remaining wells. After being cultured in the incubator for 5 hours, the wells of the 384-plate were treated with the substrate solution (8 μl per well) prepared according to the vendor's instruction (i.e., Invitrogen's instruction), and then incubated in the dark room for additional two hours. Agonistic activities on 5-HT4 receptor were evaluated, on the basis of fluorescence values of the cleavage-products by beta-lactamase. After exciting to 410 nm of wavelength using a fluorescence detector (Genios Pro), we measured the fluorescence values at two emission wavelengths (first wavelength: 465 nm, second wavelength: 535 nm). Data were analyzed on the basis of the ratio of fluorescence intensities of each well at the respective wavelengths. Each EC50 value was calculated by non-linear regression analysis using the “GraphPad Prism” program, based on the activities according to 8-different concentrations of the test compounds.

T1 sequence (Q13639 1-387 isoform Q13639-2): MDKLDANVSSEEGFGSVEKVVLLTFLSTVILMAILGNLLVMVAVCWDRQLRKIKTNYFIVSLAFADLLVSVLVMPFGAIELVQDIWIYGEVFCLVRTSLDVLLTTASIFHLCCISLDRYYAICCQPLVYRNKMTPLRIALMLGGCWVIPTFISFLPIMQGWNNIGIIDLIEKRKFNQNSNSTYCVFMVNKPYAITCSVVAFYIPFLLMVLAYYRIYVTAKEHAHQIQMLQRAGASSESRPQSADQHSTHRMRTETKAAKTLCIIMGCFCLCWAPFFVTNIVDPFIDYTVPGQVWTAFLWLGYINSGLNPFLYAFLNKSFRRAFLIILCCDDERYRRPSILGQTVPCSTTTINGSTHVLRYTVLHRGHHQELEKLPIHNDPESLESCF

| Compound | EC50 [pM] |
| --- | --- |
| CCCc1cc(N2CCC[C@H]2COC)nc(Nc2ccc(F)c([N+](=O)[O-])c2)n1 [Example 31, (S)-N-(4-fluoro-3-nitrophenyl)-4-[2-(methoxymethyl)pyrrolidin-1-yl]-6-propylpyrimidin-2-amine] | 130 |
| CCCCCC(=O)N[C@H]1CCN(c2cc(CCC)nc(Nc3cccc(C#N)c3)n2)C1 [Example 150, (S)-N-{1-[2-(3-cyanophenylamino)-6-propylpyrimidin-4-yl]pyrrolidin-3-yl}hexanamide] | 410 |
| CCCc1cc(N2CCC(NC(C)=O)C2)nc(Nc2ccc(F)c([N+](=O)[O-])c2)n1 (centres unmarked) [Example 296] | 39 |
| CCCCc1cc(N2CC[C@H](NC)C2)nc(Nc2ccc(F)c([N+](=O)[O-])c2)n1 [Example 449] | 4.4 |
| CCCCc1cc(N2CC[C@H](NCC3CC3)C2)nc(Nc2cccc(C#N)c2)n1 [Example 237] | 1.3 |
| CCCCc1cc(N2CC[C@H](NC(C)=O)C2)nc(Nc2ccc(C)c([N+](=O)[O-])c2)n1 [Example 436] | 10 |
| CCCc1cc(N2CC[C@H](NC3CCC3)C2)nc(Nc2ccc(C)c(C#N)c2)n1 [Example 419] | 3.2 |
| CCCCc1cc(N2CCC[C@H]2C)nc(Nc2cccc(C#N)c2)n1 [Example 225] | 52 |
| CCCc1cc(N2CCC(NC(C)=O)C2)nc(Nc2cnc3ccccc3c2)n1 (centres unmarked) [Example 310] | 370 |
| CCCc1cc(N2CC[C@H](NC3CCN(C(C)=O)CC3)C2)nc(Nc2cccc(C#N)c2)n1 [Example 140, (S)-3-{4-[3-(1-piperidin-4-acetylpiperidin-4-ylamino)pyrrolidin-1-yl]-6-propylpyrimidin-2-ylamino}benzonitrile] | 28 |
| CCCc1cc(N2CC[C@H](NC(C)=O)C2)nc(Nc2cccc(C#N)c2)n1 [Example 54, (S)-N-{1-[2-(3-cyanophenylamino)-6-propylpyrimidin-4-yl]pyrrolidin-3-yl}acetamide] | 32 |
| CCCc1cc(N2CCC[C@H]2COC)nc(Nc2ccc3c(c2)NCC3)n1 [Example 368] | 182 |
| CCCc1cc(N2CC[C@H](NC(C)CC)C2)nc(Nc2cccc(C#N)c2)n1 (stereo partly drawn) [Example 127, 3-{4-[(3S)-3-(sec-butylamino)pyrrolidin-1-yl]-6-propylpyrimidin-2-ylamino}benzonitrile] | 6.2 |
| CCCc1cc(N2CC[C@H](N)C2)nc(Nc2ccc(F)cc2)n1 [Example 47, (S)-4-(3-aminopyrrolidin-1-yl)-N-(4-fluorophenyl)-6-propylpyrimidin-2-amine dihydrochloride] | 380 |
| CCCc1cc(N2CCC(NC(C)=O)C2)nc(Nc2cccc(SC)c2)n1 (centres unmarked) [Example 305] | 180 |
| CCCc1cc(N2CCC[C@H]2C)nc(Nc2ccc(OC)c(N)c2)n1 [Example 331] | 138 |
| CCCCc1cc(N2CC[C@H](NC(C)=O)C2)nc(Nc2ccc(Cl)c(N)c2)n1 [Example 445] | 9.8 |
| CCCc1cc(N2CCC[C@H]2C=O)nc(Nc2cccc(C#N)c2)n1 [Example 402, (S)-3-[4-(2-formylpyrrolidin-1-yl)-6-propylpyrimidin-2-ylamino]benzonitrile] | 236 |
| CCCc1cc(N2CC[C@H](NCc3ccc(O)cc3)C2)nc(Nc2cccc(C#N)c2)n1 [Example 91, (S)-3-{4-[3-(4-hydroxybenzylamino)pyrrolidin-1-yl]-6-propylpyrimidin-2-ylamino}benzonitrile] | 14 |
| CCCc1cc(N2CC[C@H](NCC3CC3)C2)nc(Nc2ccc(F)c([N+](=O)[O-])c2)n1 [Example 373] | 4.3 |
| CCCc1cc(N2CC[C@H](N)C2)nc(Nc2ccc(N)c([N+](=O)[O-])c2)n1 [Example 359] | 2.1 |

| Compound | EC50 [pM] |
| --- | --- |
| CCCc1cc(N2CC[C@H](NCc3cccc(C(F)(F)F)c3)C2)nc(Nc2cccc(C#N)c2)n1 [Example 107, (S)-3-(4-propyl-6-{3-[3-(trifluoromethyl)benzylamino]pyrrolidin-1-yl}pyrimidin-2-ylamino)benzonitrile] | 420 |
| CCCc1cc(N2CC[C@H](NC(=O)Cc3cccnc3)C2)nc(Nc2ccc(C)c(C#N)c2)n1 [Example 428] | 66 |
| CCCCc1cc(N2CC[C@H](NCC)C2)nc(Nc2ccc(C)c(C#N)c2)n1 [Example 460] | 1.9 |
| CCCc1cc(N2CC[C@H](NC(=O)CO)C2)nc(Nc2cc(N)cc(C(F)(F)F)c2)n1 [Example 475] | 11 |
| CCCc1cc(N2CC[C@H](NC(=O)CCCN(C)C)C2)nc(Nc2cccc(C#N)c2)n1 [Example 162] | 193 |
| CCCc1cc(N2CC[C@H](NCCCSC)C2)nc(Nc2cccc(C#N)c2)n1 [Example 117, (S)-3-(4-{3-[3-(methylthio)propylamino]pyrrolidin-1-yl}-6-propylpyrimidin-2-ylamino)benzonitrile] | 14 |
| CCCc1cc(N2CC[C@H](NCC)C2)nc(Nc2cccc(C#N)c2)n1 [Example 55, (S)-3-{4-[3-(ethylamino)pyrrolidin-1-yl]-6-propylpyrimidin-2-ylamino}benzonitrile] | 16 |
| CCCc1cc(N2CC[C@H](N)C2)nc(Nc2ccc(C)c([N+](=O)[O-])c2)n1 [Example 351, (S)-4-(3-aminopyrrolidin-1-yl)-N-(4-methyl-3-nitrophenyl)-6-propylpyrimidin-2-amine dihydrochloride] | 3.5 |
| CCCc1cc(N2CC[C@H](NCCc3ccccc3)C2)nc(Nc2cccc(C#N)c2)n1 [Example 88, (S)-3-{4-[3-(phenethylamino)pyrrolidin-1-yl]-6-propylpyrimidin-2-ylamino}benzonitrile] | 41 |
| CCCc1cc(N2CCC[C@H]2CO)nc(Nc2ccc(Cl)c(N)c2)n1 [Example 401] | 73 |
| CCCc1cc(N2CC[C@H](NCC3CC3)C2)nc(Nc2cc(Cl)ccc2C)n1 [Example 380] | 9 |
| CCCCN1CCC(N[C@H]2CCN(c3cc(CCC)nc(Nc4cccc(C#N)c4)n3)C2)CC1 [Example 222] | 82 |
| CCCc1cc(N2CCC[C@H]2C)nc(Nc2ccc3c(c2)N(C(C)=O)CC3)n1 [Example 329] | 180 |
| CCCc1cc(N2CC[C@H](NCCNC(=O)OC(C)(C)C)C2)nc(Nc2cccc(C#N)c2)n1 [Example 136, (S)-tert-butyl 2-{1-[2-(3-cyanophenylamino)-6-propylpyrimidin-4-yl]pyrrolidin-3-ylamino}ethylcarbamate] | 45 |
| CCCc1cc(N2CCC[C@H]2C)nc(Nc2ccc3c(C)cc(=O)oc3c2)n1 [Example 317] | 140 |
| CCCc1cc(N2CC[C@H](NCC(C)C)C2)nc(Nc2cccc(C#N)c2)n1 [Example 96, (S)-3-{4-[3-(isobutylamino)pyrrolidin-1-yl]-6-propylpyrimidin-2-ylamino}benzonitrile] | 17 |
| CCCc1cc(N2CCC[C@H]2CNCCO)nc(Nc2cccc(C#N)c2)n1 [Example 407] | 254 |
| CCCc1cc(N2CCC[C@H]2C)nc(Nc2ccc(F)c(N)c2)n1 [Example 333] | 24 |
| CCCc1cc(N2CC[C@H](NC(=O)CO)C2)nc(Nc2ccc(F)c(C#N)c2)n1 [Example 473] | 22 |
| CCCc1cc(N2CC[C@H](NC(=O)CNC(=O)OCc3ccccc3)C2)nc(Nc2cccc(C#N)c2)n1 [Example 165, (S)-benzyl 2-{1-[2-(3-cyanophenylamino)-6-propylpyrimidin-4-yl]pyrrolidin-3-ylamino}-2-oxoethylcarbamate] | 200 |
